Measurements taken from the supplement of paper PMC10307832.

Columns and labels:
Test in all cases: relative viability (nuclei count vs DMSO), 5 days (fraction); higher = more cells survive
[1] = compound: CCOc1cc2ncc(C#N)c(Nc3ccc(OCc4ccccn4)c(Cl)c3)c2cc1NC(=O)/C=C/CN(C)C [Neratinib] + N=C(N)NC(=N)NCCc1ccccc1 [Phenformin] (partner 250 µM)
Procedure, shortened: (§1)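 Nuclei were stained with Hoechst during a one-step fixation (final 0.05% Triton X-100, 1% formaldehyde, 1 ug/ml Hoechst) carried out 5 days after dosing, then counted on 4× images. The cells, lung cancer lines in 1536-well plates, had been dosed by pin tool the day after seeding with one drug alone or a fixed anchor-drug dose plus five library-drug doses (not always all listed) in √10 steps. Relative viability is the nuclei count in treated wells divided by that in vehicle wells, and each value is the median of duplicate plates.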

[2] = compound: CCOc1cc2ncc(C#N)c(Nc3ccc(OCc4ccccn4)c(Cl)c3)c2cc1NC(=O)/C=C/CN(C)C [Neratinib] + COc1cccc2cc(-c3nc([C@H]4CC[C@H](C(=O)O)CC4)n4ncnc(N)c34)[nH]c12 [OSI-027] (partner 0.5 µM)
Procedure, shortened: as §1

[3] = compound: CCOc1cc2ncc(C#N)c(Nc3ccc(OCc4ccccn4)c(Cl)c3)c2cc1NC(=O)/C=C/CN(C)C [Neratinib] + C[C@@H](Oc1cc(-c2cnn(C3CCNCC3)c2)cnc1N)c1c(Cl)ccc(F)c1Cl [Crizotinib] (partner 1 µM)
Procedure, shortened: as §1

[4] = compound: CCOc1cc2ncc(C#N)c(Nc3ccc(OCc4ccccn4)c(Cl)c3)c2cc1NC(=O)/C=C/CN(C)C [Neratinib] + CC(=O)Nc1cccc(-n2c(=O)n(C3CC3)c(=O)c3c(Nc4ccc(I)cc4F)n(C)c(=O)c(C)c32)c1 [Trametinib] (partner 0.02 µM)
Procedure, shortened: as §1

Cell Line | relative viability ([1]; first compound 0.01 µM) | relative viability ([1]; first compound 0.03162 µM) | relative viability ([1]; first compound 0.1 µM) | relative viability ([1]; first compound 0.3162 µM) | relative viability ([1]; first compound 1 µM) | relative viability ([2]; first compound 0.01 µM) | relative viability ([2]; first compound 0.03162 µM) | relative viability ([2]; first compound 0.1 µM) | relative viability ([2]; first compound 0.3162 µM) | relative viability ([2]; first compound 1 µM) | relative viability ([3]; first compound 0.01 µM) | relative viability ([3]; first compound 0.03162 µM) | relative viability ([3]; first compound 0.1 µM) | relative viability ([3]; first compound 0.3162 µM) | relative viability ([3]; first compound 1 µM) | relative viability ([4]; first compound 0.01 µM) | relative viability ([4]; first compound 0.1 µM) | relative viability ([4]; first compound 0.3162 µM) | relative viability ([4]; first compound 1 µM) | relative viability ([4]; first compound 0.03162 µM)
201T | 0.484 | 0.424 | 0.44 | 0.379 | 0.42 | 0.725 | 0.889 | 0.683 | 0.646 | 0.611 | 1.08 | 0.974 | 0.861 | 1.06 | 0.959 | 0.755 | 0.688 | 0.707 | 0.707 | 
A-427 | 0.427 | 0.313 | 0.32 | 0.281 | 0.268 | 0.487 | 0.499 | 0.467 | 0.332 | 0.218 | 1.07 | 0.936 | 0.819 | 0.924 | 0.566 | 0.835 | 0.807 | 0.637 | 0.337 | 0.85
ABC-1 | 0.211 | 0.236 | 0.285 | 0.231 | 0.215 | 0.436 | 0.441 | 0.47 | 0.42 | 0.214 | 1.47 | 0.954 | 1.06 | 0.668 | 0.537 |  |  |  |  | 
BEN | 0.259 | 0.279 | 0.22 | 0.251 | 0.248 | 0.286 | 0.304 | 0.275 | 0.283 | 0.286 | 0.849 | 1.1 | 0.869 | 0.762 | 0.509 | 1.02 | 1 | 0.883 | 0.792 | 1.2
CAL-12T | 0.55 | 0.572 | 0.488 | 0.254 | 0.179 | 0.614 | 0.719 | 0.345 | 0.237 | 0.197 | 0.84 | 0.945 | 0.408 | 0.256 | 0.206 | 0.322 | 0.236 | 0.254 | 0.223 | 0.322
COR-L23 | 0.44 | 0.469 | 0.429 | 0.473 | 0.41 | 0.863 | 0.862 | 0.753 | 0.68 | 0.285 | 0.853 | 0.678 | 0.589 | 0.564 | 0.503 | 0.572 | 0.598 | 0.482 | 0.379 | 0.603
COR-L 105 | 0.537 | 0.467 | 0.304 | 0.221 | 0.193 | 0.863 | 0.54 | 0.36 | 0.226 | 0.283 | 0.978 | 0.828 | 0.531 | 0.201 | 0.22 | 0.49 | 0.372 | 0.32 | 0.4 | 0.441
Calu-6 |  |  |  |  |  |  |  |  |  |  | 0.905 | 0.939 | 0.737 | 0.692 | 0.422 |  |  |  |  | 
ChaGo-K-1 | 0.466 | 0.518 | 0.482 | 0.432 | 0.401 | 0.62 | 0.545 | 0.574 | 0.459 | 0.613 | 1.3 | 1.24 | 1.14 | 1.02 | 0.845 | 0.886 | 0.754 | 0.882 | 0.845 | 0.941
EKVX | 0.241 | 0.244 | 0.226 | 0.206 | 0.132 | 0.712 | 0.693 | 0.656 | 0.365 | 0.195 | 1.32 | 1.08 | 0.823 | 0.452 | 0.211 | 0.353 | 0.315 | 0.139 | 0.162 | 0.334
EMC-BAC-2 | 0.586 | 0.554 | 0.505 | 0.451 | 0.377 | 0.36 | 0.456 | 0.344 | 0.361 | 0.291 | 0.828 | 0.817 | 0.635 | 0.709 | 0.407 | 0.949 | 0.855 | 0.793 | 0.671 | 0.885
EPLC-272H |  | 0.309 | 0.317 | 0.235 | 0.157 |  | 0.294 |  | 0.24 | 0.194 | 0.997 | 0.964 | 0.799 | 0.613 | 0.553 | 0.278 | 0.253 | 0.248 | 0.22 | 0.321
H3255 | 0.311 | 0.28 | 0.242 | 0.222 | 0.246 | 0.559 | 0.571 | 0.436 | 0.212 | 0.215 | 0.836 | 0.838 | 0.671 | 0.243 | 0.164 | 0.619 | 0.426 | 0.241 | 0.236 | 0.602
HARA | 0.387 | 0.578 | 0.385 | 0.318 | 0.215 | 0.533 | 0.527 |  | 0.225 | 0.129 | 1.19 | 1.09 | 0.731 | 0.782 | 0.489 | 0.545 | 0.516 |  | 0.303 | 0.786
HCC-15 | 0.537 | 0.576 | 0.456 | 0.368 | 0.349 | 0.707 | 0.794 | 0.6 | 0.559 | 0.511 | 0.843 | 0.906 | 0.829 | 0.707 | 0.648 | 0.329 | 0.362 | 0.349 | 0.325 | 0.402
HCC-44 | 0.22 | 0.228 | 0.213 | 0.157 | 0.245 | 0.723 | 0.655 | 0.648 | 0.505 | 0.548 | 0.821 | 0.8 | 0.727 | 0.806 | 0.851 | 1.14 | 1.11 | 1.08 | 1.09 | 1.08
HCC-78 | 0.724 | 0.731 | 0.624 | 0.545 | 0.296 | 0.387 | 0.333 | 0.354 | 0.27 | 0.296 | 0.325 | 0.3 | 0.284 | 0.264 | 0.225 | 0.901 | 0.678 | 0.731 | 0.296 | 0.668
